Assay results published in ChEMBL document CHEMBL1140367, “Discovery and activity of (1R,4S,6R)-N-[(1R)-2-[4-cyclohexyl-4-[[(1,1-dimethylethyl)amino]carbonyl]-1-piperidinyl]-1-[(4-fluorophenyl)methyl]-2-oxoethyl]-2-methyl-2-azabicyclo[2.2.2]octane-6-carboxamide (3, RY764), a potent and selective melanocortin subtype-4 receptor agonist” (Bioorg Med Chem Lett, 2005).
Blank lines part the entries; values can stand above or below the compound they belong to.

Columns and labels:
Melanocortin receptor 3 [1] = biological target: T1, Melanocortin receptor 3 (Homo sapiens, UniProt P41968); experiment: Percentage of cAMP accumulation at 10 uM compound relative to alpha-MSH for melanocortin receptor 3; format: functional
Melanocortin receptor 4 [2] = biological target: T2, Melanocortin receptor 4 (Homo sapiens, UniProt P32245); experiment: Inhibition concentration (binding affinity) against human melanocortin receptor 4 by displacement of [125I]NDP-alpha-MSH from the human receptors expressed in CHO cells; format: cell-based
Melanocortin receptor 5 [3] = biological target: T3, Melanocortin receptor 5 (Homo sapiens, UniProt P33032); experiment: Inhibition concentration (binding affinity) against human melanocortin receptor 5 by displacement of [125I]NDP-alpha-MSH from the human receptors expressed in CHO cells; format: cell-based
Melanocortin receptor 4 [4] = biological target: T2, Melanocortin receptor 4; experiment: Inhibition concentration (binding affinity) exhibited against human melanocortin receptor 4 by radio labeled ligand assay (Displacement of [125I]NDP-alpha-MSH from the human receptors expressed in CHO cells); format: functional, cell-based
Melanocortin receptor 3 [5] = biological target: T1, Melanocortin receptor 3; experiment: Inhibition concentration (binding affinity) against human melanocortin receptor 3 by displacement of [125I]NDP-alpha-MSH from the human receptors expressed in CHO cells; format: cell-based
Melanocortin receptor 5 [6] = biological target: T3, Melanocortin receptor 5; details: 10 uM
Melanocortin receptor 5 [7] = biological target: T3, Melanocortin receptor 5; experiment: Inhibition concentration (binding affinity) exhibited against human melanocortin receptor 5 by radio labeled ligand assay (Displacement of [125I]NDP-alpha-MSH from the human receptors expressed in CHO cells); format: functional, cell-based
[8] = Volume of distribution in Sprague Dawley rats as a solution in water at 1 mg/kg, iv and 20 mg/kg, po.; format: ADME, organism-based; details: rat, in vivo, read-out: Vdss
Melanocortin receptor 4 [9] = biological target: T4, Melanocortin receptor 4 (Mus musculus, UniProt P56450); experiment: Inhibition concentration (binding affinity) against mouse melanocortin receptor 4 by displacement of [125I]NDP-alpha-MSH from the human receptors expressed in CHO cells; format: cell-based
Melanocortin receptor 4 [10] = biological target: T2, Melanocortin receptor 4; experiment: Concentration of compound at 50% maximum cAMP accumulation in human melanocortin receptor (hMC4R); format: functional
Melanocortin receptor 5 [11] = biological target: T3, Melanocortin receptor 5; experiment: Concentration of compound at 50% maximum cAMP accumulation in human melanocortin receptor (hMC5R); format: functional
[12] = Bioavailability in Sprague Dawley rats as a solution in water at 1 mg/kg, iv and 20 mg/kg, po.; format: ADME, organism-based; details: rat, in vivo
[13] = Cmax value in Sprague Dawley rats as a solution in water at 1 mg/kg, iv and 20 mg/kg, po.; format: ADME, organism-based; details: rat, in vivo
[14] = Cmax value in beagles as a solution in water at 0.5 mg/kg, iv and 2.0 mg/kg, po.; format: ADME, organism-based, Canis lupus familiaris; details: beagle, dog, in vivo
[15] = Volume of distribution in rhesus as a solution in water at 0.5 mg/kg, iv and 2 mg/kg po.; format: ADME, organism-based; details: cercopithecidae, in vivo, read-out: Vdss
[16] = Clearance in rhesus as a solution in water at 0.5 mg/kg, iv and 2 mg/kg po.; format: ADME, organism-based; details: cercopithecidae, in vivo
[17] = Half life in Sprague Dawley rats as a solution in water at 1 mg/kg, iv and 20 mg/kg, po.; format: ADME, organism-based; details: rat, in vivo
[18] = Bioavailability in rhesus as a solution in water at 0.5 mg/kg, iv and 2 mg/kg po.; format: ADME, organism-based, Macaca mulatta; details: rhesus monkey, in vivo
[19] = Clearance in Sprague Dawley rats as a solution in water at 1 mg/kg, iv and 20 mg/kg, po.; format: ADME, organism-based; details: rat, in vivo
[20] = biological target: Melanocyte-stimulating hormone receptor (Homo sapiens, UniProt Q01726); experiment: Inhibition concentration (binding affinity) against human melanocortin receptor 1 by displacement of [125I]NDP-alpha-MSH from the human receptors expressed in CHO cells; format: cell-based
[21] = Half life in beagles as a solution in water at 0.5 mg/kg, iv and 2.0 mg/kg, po.; format: ADME, organism-based, Canis lupus familiaris; details: beagle, dog, in vivo
[22] = Clearance in beagles as a solution in water at 0.5 mg/kg, iv and 2.0 mg/kg, po.; format: ADME, organism-based, Canis lupus familiaris; details: beagle, dog, in vivo
[23] = […] in beagles as a solution in water at 0.5 mg/kg, iv and 2.0 mg/kg, po.; format: organism-based, Canis lupus familiaris; details: beagle, dog, in vivo
[24] = biological target: T5, Adrenocorticotropic hormone receptor (Homo sapiens, UniProt Q01718); experiment: Inhibition concentration (binding affinity) against human melanocortin receptor 2 by displacement of [125I]NDP-alpha-MSH from the human receptors expressed in CHO cells; format: cell-based
[25] = Volume of distribution in beagles as a solution in water at 0.5 mg/kg, iv and 2.0 mg/kg, po.; format: ADME, organism-based, Canis lupus familiaris; details: beagle, dog, in vivo, read-out: Vdss
Melanocortin receptor 4 [26] = biological target: T6, Melanocortin receptor 4 (Rattus norvegicus, UniProt P70596); experiment: Inhibition concentration (binding affinity) against rat melanocortin receptor 4 by displacement of [125I]NDP-alpha-MSH from the human receptors expressed in CHO cells; format: cell-based
[27] = Cmax value in rhesus as a solution in water at 0.5 mg/kg, iv and 2 mg/kg po.; format: ADME, organism-based; details: cercopithecidae, in vivo
[28] = Bioavailability in beagles as a solution in water at 0.5 mg/kg, iv and 2.0 mg/kg, po.; format: ADME, organism-based, Canis lupus familiaris; details: beagle, dog, in vivo
[29] = […] in rhesus as a solution in water at 0.5 mg/kg, iv and 2 mg/kg po.; format: organism-based; details: cercopithecidae, in vivo
[30] = biological target: T5, Adrenocorticotropic hormone receptor; details: 10 uM
Melanocortin receptor 4 [31] = biological target: T6, Melanocortin receptor 4; experiment: Concentration of compound at 50% maximum cAMP accumulation in rat melanocortin receptor (rMC4R); format: functional
[32] = […] in Sprague Dawley rats as a solution in water at 1 mg/kg, iv and 20 mg/kg, po.; format: organism-based; details: rat, in vivo
Melanocortin receptor 4 [33] = biological target: T4, Melanocortin receptor 4; experiment: Concentration of compound at 50% maximum cAMP accumulation in mouse melanocortin receptor (mMC4R); format: functional
Melanocortin receptor 3 [34] = biological target: T1, Melanocortin receptor 3; experiment: Percentage of cAMP accumulation at 10 uM compound relative to alpha-MSH in hMC3R; format: functional
[35] = Half life in rhesus as a solution in water at 0.5 mg/kg, iv and 2 mg/kg po.; format: ADME, organism-based; details: cercopithecidae, in vivo
Melanocortin receptor 4 [36] = biological target: T2, Melanocortin receptor 4; experiment: Effective concentration (binding affinity) exhibited against human melanocortin receptor 4 by radio labeled ligand assay (Displacement of [125I]NDP-alpha-MSH from the human receptors expressed in CHO cells); format: functional, cell-based

T2 sequence (P32245 whole entry): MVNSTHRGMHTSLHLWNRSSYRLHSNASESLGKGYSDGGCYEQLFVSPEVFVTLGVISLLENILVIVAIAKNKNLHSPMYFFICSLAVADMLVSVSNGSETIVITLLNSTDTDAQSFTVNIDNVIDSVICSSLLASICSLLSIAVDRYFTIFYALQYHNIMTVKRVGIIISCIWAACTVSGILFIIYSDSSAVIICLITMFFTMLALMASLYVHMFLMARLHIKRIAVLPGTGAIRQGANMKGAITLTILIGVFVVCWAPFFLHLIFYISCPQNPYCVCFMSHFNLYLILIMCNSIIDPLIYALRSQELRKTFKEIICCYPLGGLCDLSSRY
T3 sequence (P33032 whole entry): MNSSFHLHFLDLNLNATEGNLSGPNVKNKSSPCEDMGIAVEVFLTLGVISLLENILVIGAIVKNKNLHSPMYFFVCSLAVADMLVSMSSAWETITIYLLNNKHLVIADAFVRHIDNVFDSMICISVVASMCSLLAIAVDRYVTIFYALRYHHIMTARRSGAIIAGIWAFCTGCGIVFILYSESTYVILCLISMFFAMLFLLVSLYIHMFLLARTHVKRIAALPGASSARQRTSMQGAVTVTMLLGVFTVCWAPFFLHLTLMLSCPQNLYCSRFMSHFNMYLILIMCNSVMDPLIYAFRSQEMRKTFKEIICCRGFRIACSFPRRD
T1 sequence (P41968 whole entry): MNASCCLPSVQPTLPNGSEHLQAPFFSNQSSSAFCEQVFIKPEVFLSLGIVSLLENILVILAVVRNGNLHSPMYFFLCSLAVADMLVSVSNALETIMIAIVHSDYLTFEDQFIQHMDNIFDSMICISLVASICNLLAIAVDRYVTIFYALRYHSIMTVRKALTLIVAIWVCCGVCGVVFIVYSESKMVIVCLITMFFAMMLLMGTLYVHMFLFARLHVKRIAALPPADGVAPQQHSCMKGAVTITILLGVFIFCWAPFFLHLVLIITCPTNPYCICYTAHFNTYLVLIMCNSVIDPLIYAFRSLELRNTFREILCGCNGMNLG
T6 sequence (P70596 whole entry): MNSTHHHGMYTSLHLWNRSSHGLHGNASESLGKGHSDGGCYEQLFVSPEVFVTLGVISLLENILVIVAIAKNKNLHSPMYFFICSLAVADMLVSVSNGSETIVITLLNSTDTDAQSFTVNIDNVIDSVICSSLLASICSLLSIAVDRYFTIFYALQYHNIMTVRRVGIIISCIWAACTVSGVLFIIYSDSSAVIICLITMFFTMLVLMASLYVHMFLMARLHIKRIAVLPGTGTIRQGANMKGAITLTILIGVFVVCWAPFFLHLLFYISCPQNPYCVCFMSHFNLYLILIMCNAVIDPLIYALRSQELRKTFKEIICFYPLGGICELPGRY
T5 sequence (Q01718 whole entry): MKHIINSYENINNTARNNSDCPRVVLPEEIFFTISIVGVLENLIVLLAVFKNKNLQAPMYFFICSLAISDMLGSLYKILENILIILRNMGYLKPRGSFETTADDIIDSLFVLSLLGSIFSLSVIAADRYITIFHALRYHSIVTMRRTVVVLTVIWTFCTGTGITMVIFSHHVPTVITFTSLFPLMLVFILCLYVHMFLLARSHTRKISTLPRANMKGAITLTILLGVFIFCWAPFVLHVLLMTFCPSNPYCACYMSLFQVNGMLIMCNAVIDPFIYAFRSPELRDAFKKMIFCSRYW
T4 sequence (P56450 whole entry): as the sequence (P70596 whole entry) above, with H21Y, S36P, T199S, A239T, P329S, G330S counted along it
Melanocyte-stimulating hormone receptor, sequence (Q01726 whole entry): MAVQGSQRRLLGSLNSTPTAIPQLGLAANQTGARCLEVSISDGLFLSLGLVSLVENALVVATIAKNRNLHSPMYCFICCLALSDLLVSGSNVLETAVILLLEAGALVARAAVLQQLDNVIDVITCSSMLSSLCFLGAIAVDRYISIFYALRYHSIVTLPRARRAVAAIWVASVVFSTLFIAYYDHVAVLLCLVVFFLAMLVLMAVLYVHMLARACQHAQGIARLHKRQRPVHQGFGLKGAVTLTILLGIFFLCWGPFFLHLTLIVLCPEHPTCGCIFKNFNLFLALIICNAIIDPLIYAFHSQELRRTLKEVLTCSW

Max (Melanocortin receptor 3 [1]): 4%
IC50 (Melanocortin receptor 4 [2]): 6 nM
IC50 (Melanocortin receptor 5 [3]): 1080 nM
EC50 (Melanocortin receptor 4 [4]): 34 nM
IC50 (Melanocortin receptor 3 [5]): 410 nM
Max (Melanocortin receptor 5 [6]): 5%
SMILES: CN1C[C@@H]2CC[C@H]1[C@@H](C(=O)N[C@H](Cc1ccc(F)cc1)C(=O)N1CCC(C(=O)NC(C)(C)C)(C3CCCCC3)CC1)C2

Vd [8]: 9.6 L/kg
Max (Melanocortin receptor 3 [1]): 8%
IC50 (Melanocortin receptor 4 [9]): 3000 nM
EC50 (Melanocortin receptor 4 [10]): 11000 nM
EC50 (Melanocortin receptor 5 [11]): 850 nM
bioavailability [12]: 32%
Cmax [13]: 870 nM
Cmax [14]: 910 nM
Vd [15]: 0.8 L/kg
clearance [16]: 3.4 mL/min/kg
half-life [17]: 3.2 h
bioavailability [18]: 16%
Max (Melanocortin receptor 5 [6]): 33%
clearance [19]: 46.9 mL/min/kg
IC50 [20]: 750 nM
half-life [21]: 4.9 h
clearance [22]: 6.6 mL/min/kg
IC50 [24]: > 10000 nM
Vd [25]: 2.3 L/kg
IC50 (Melanocortin receptor 4 [26]): 3000 nM
Cmax [27]: 850 nM
bioavailability [28]: 50%
Activation [30]: 2%
EC50 (Melanocortin receptor 4 [31]): 5000 nM
EC50 (Melanocortin receptor 4 [33]): 6000 nM
Activation (Melanocortin receptor 3 [34]): 8%
half-life [35]: 4.6 h
SMILES: CN1C[C@H]2CC[C@@H]1[C@H](C(=O)N[C@H](Cc1ccc(F)cc1)C(=O)N1CCC(C(=O)NC(C)(C)C)(C3CCCCC3)CC1)C2
Tmax [23]: 1.1 h
Tmax [29]: 1.3 h
Tmax [32]: 3 h

Max (Melanocortin receptor 3 [1]): 5%
IC50 (Melanocortin receptor 4 [2]): 28 nM
EC50 (Melanocortin receptor 5 [7]): 850 nM
IC50 (Melanocortin receptor 5 [3]): 6460 nM
EC50 (Melanocortin receptor 4 [36]): 165 nM
IC50 (Melanocortin receptor 3 [5]): 1350 nM
Max (Melanocortin receptor 5 [6]): 14%
SMILES: CN1C[C@H]2CC[C@@H]1[C@@H](C(=O)N[C@H](Cc1ccc(F)cc1)C(=O)N1CCC(C(=O)NC(C)(C)C)(C3CCCCC3)CC1)C2

Continued, compound first:

SMILES: CC(C)(C)NC(=O)C1(C2CCCCC2)CCN(C(=O)[C@@H](Cc2ccc(F)cc2)NC(=O)[C@H]2C[C@H]3CC[C@@H]2NC3)CC1
Max (Melanocortin receptor 3 [1]): 10%
IC50 (Melanocortin receptor 4 [2]): 41 nM
EC50 (Melanocortin receptor 5 [7]): 1980 nM
IC50 (Melanocortin receptor 5 [3]): 9870 nM
EC50 (Melanocortin receptor 4 [4]): 238 nM
IC50 (Melanocortin receptor 3 [5]): 2060 nM
Max (Melanocortin receptor 5 [6]): 26%

SMILES: CC(C)(C)NC(=O)C1(C2CCCCC2)CCN(C(=O)[C@@H](Cc2ccc(F)cc2)NC(=O)[C@H]2C[C@@H]3CC[C@@H]2NC3)CC1
pMax (Melanocortin receptor 3 [1]): 3%
IC50 (Melanocortin receptor 4 [2]): 14 nM
IC50 (Melanocortin receptor 5 [3]): 1020 nM
EC50 (Melanocortin receptor 4 [4]): 52 nM
IC50 (Melanocortin receptor 3 [5]): 620 nM
Max (Melanocortin receptor 5 [6]): 3%

SMILES: CC(C)(C)NC(=O)C1(C2CCCCC2)CCN(C(=O)[C@@H](Cc2ccc(F)cc2)NC(=O)C2CC3CCC2NC3)CC1 (single isomer, unassigned)
Max (Melanocortin receptor 3 [1]): 4%
IC50 (Melanocortin receptor 4 [2]): 16 nM
IC50 (Melanocortin receptor 5 [3]): 940 nM
EC50 (Melanocortin receptor 4 [4]): 20 nM
IC50 (Melanocortin receptor 3 [5]): 620 nM
Max (Melanocortin receptor 5 [6]): 11%
